According to patent publication US20160016951A1 (Merck Patent GmbH, priority 2014, published 2016):
Where two headings read alike, the source gives them in different places.

Target: T1, CDK8 (CDK8/CycC) (Homo sapiens, UniProt P49336)
T1 construct: purchased Invitrogen PV4402
Experiment: FRET based Lanthascreen binding competition assay
Description: FRET based Lanthascreen binding competition assay: A dye-labeled ATP competitive probe served as a FRET acceptor upon binding to CDK8 labeled with a strepavidin —Eu-chelate (via abiotinylated anti His antibody). […] In case this probe was competed by an inhibitor as such a signal cannot be generated any more. The CDK8 used for this assay was a protein co-expressed with CycC.
The assay procedure for an assay in a 1536 well plate was performed according to the following: 2 μL CDK8/biotin-anti-His Ab/SA-Eu mix in Assay buffer were pipetted into the wells of a micro plate.
1 μL compound in 20 mM Hepes buffer/5% DMSO was added. The plate was shaken for 30 sec and incubated for 20 min at RT. 2 μL Alexa647-probe in assay buffer were added. The plate was shaken for 30 sec again and incubated for 60 min at RT in the dark. Then the plate was read out on a Perkin Elmer Envision (mode LANCE/TRF, excitation 340 nm emission 650 nm).

[1] = 5 nM CDK8/CycC, 10 nM Alexa647-Tracer, 1% DMSO, 60 min at RT, read-out: IC50 CDK8 binding

T1 sequence (P49336 whole entry): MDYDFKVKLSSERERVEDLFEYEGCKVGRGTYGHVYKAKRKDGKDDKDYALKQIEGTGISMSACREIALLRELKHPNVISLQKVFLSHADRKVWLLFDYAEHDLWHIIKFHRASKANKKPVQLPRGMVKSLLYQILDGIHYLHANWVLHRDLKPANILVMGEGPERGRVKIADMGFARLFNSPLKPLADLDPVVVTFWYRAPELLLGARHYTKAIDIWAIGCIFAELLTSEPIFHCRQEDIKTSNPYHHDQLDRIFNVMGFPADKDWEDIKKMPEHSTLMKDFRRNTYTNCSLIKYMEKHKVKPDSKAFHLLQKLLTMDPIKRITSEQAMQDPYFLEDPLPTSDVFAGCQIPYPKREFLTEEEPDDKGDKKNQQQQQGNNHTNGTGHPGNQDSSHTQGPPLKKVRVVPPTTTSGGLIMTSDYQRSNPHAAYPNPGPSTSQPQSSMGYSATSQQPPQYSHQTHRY
T1 sequence (P24863 whole entry partner): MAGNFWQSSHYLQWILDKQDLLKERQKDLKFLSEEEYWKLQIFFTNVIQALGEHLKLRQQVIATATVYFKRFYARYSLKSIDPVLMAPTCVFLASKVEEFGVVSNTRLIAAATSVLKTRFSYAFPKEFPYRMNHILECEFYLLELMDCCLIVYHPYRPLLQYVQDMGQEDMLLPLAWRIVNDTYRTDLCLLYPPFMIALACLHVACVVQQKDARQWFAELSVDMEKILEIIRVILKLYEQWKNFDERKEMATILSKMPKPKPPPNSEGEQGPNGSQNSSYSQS

Structure (SMILES)	IC50 [1] [nM]	IC50 [nM]
Cn1cc(-c2ccc(-c3cncc4ccc(O)nc34)cc2)cn1 [Compound 79, 8-(4-(1-methyl-1H-pyrazol-4-yl)phenyl)-1,6-naphthyridin-2-ol]	501 to 1000	
Cn1cc(-c2ccc(-c3cncc4ccc(N5CCNCC5)nc34)cc2)cn1 [Compound 72, 8-(4-(1-methyl-1H-pyrazol-4-yl)phenyl)-2-(piperazin-1-yl)-1,6-naphthyridine]	501 to 1000	
COC1CN(C(=O)c2ccc3cncc(-c4ccc(-c5cc(C(F)(F)F)nn5C)cc4)c3n2)C1 [Compound 57, (3-methoxyazetidin-1-yl)(8-(4-(1-methyl-3-(trifluoromethyl)-1H-pyrazol-5-yl)phenyl)-1,6-naphthyridin-2-yl)methanone]	101 to 500	
CC1CCC(=O)N1c1ccc2cncc(-c3ccc(-c4cnn(C)c4)cc3)c2c1 (centres unmarked) [Compound 114, 5-Methyl-1-{4-[4-(1-methyl-1H-pyrazol-4-yl)-phenyl]-isoquinolin-6-yl}-pyrrolidin-2-one]	10 to 100	
CC(C)(O)Cn1cc(-c2ccc(-c3cncc4ccc(C(=O)N5CC(F)(F)C5)cc34)cc2)cn1 [Compound 136]	10 to 100	
Nc1nccc2cc(C(=O)N3CCC[C@H]3c3ccc(Cl)cc3)ccc12 [Compound 137, (S)-(1-aminoisoquinolin-6-yl)(2-(4-chlorophenyl)pyrrolidin-1-yl)methanone]	10 to 100	
CNC(=O)c1ccc2c(O)ncc(-c3ccc4c(c3)CS(=O)(=O)N4)c2n1 [Compound 63, 8-(2,2-dioxido-1,3-dihydrobenzo[c]isothiazol-5-yl)-5-hydroxy-N-methyl-1,6-naphthyridine-2-carboxamide]	101 to 500	
CN(C)C(=O)c1ccc2cncc(-c3ccc4c(c3)CS(=O)(=O)N4)c2n1 [Compound 46, 8-(2,2-Dioxo-2,3-dihydro-1H-benzo[c]isothiazol-5-yl)-[1,6]naphthyridine-2-carboxylic acid dimethylamide]	10 to 100	
CC(C)(O)Cn1cc(-c2ccc(-c3cncc4ccc(C(=O)N5CCOCC5)cc34)cc2)cn1 [Compound 135]	10 to 100	
C[C@@H](NC(=O)c1ccc2cncc(Br)c2n1)c1ccccc1 [Compound 48, (R)-8-bromo-N-(1-phenylethyl)-1,6-naphthyridine-2-carboxamide]	10 to 100	
CN1c2ccc(-c3cnc(N)c4ccc(CO)nc34)cc2CS1(=O)=O [Compound 58, [5-Amino-8-(1-methyl-2,2-dioxo-2,3-dihydro-1H-benzo[c]isothiazol-5-yl)-[1,6]naphthyridin-2-yl]-methanol]	101 to 500	
O=C(c1ccc2cnccc2n1)N1CCC[C@H]1c1ccc(Br)cc1 [Compound 84, (S)-(2-(4-bromophenyl)pyrrolidin-1-yl)(1,6-naphthyridin-2-yl)methanone]	10 to 100	
COC1CN(C(=O)c2ccc3c(N)ncc(-c4ccc5c(c4)CC(=O)N5C)c3c2)C1 [Compound 177, 5-[1-Amino-6-(3-methoxy-azetidine-1-carbonyl)-isoquinolin-4-yl]-1-methyl-1,3-dihydro-indol-2-one]	10 to 100	
COC1CN(C(=O)c2ccc3cncc(-c4ccc5nn(CC(C)(C)O)cc5c4)c3c2)C1 [Compound 133, (4-(2-(2-hydroxy-2-methylpropyl)-2H-indazol-5-yl)isoquinolin-6-yl)(3-methoxyazetidin-1-yl)methanone]		10 to 100
COC1CN(C(=O)c2ccc3c(N)ncc(-c4ccc5c(c4)CCC(=O)N5C)c3c2)C1 [Compound 178, 6-(1-amino-6-(3-methoxyazetidine-1-carbonyl)isoquinolin-4-yl)-1-methyl-3,4-dihydroquinolin-2(1H)-one]	101 to 500	
O=C(c1ccc2cnccc2c1)N1CCC[C@H]1c1ccccc1 [Compound 122, (S)-isoquinolin-6-yl(2-phenylpyrrolidin-1-yl)methanone]	10 to 100	

Next, values leading:

IC50 [1] [nM]	IC50 [nM]	Structure (SMILES)
10 to 100		CN1c2ccc(-c3cncc4ccc(N5CCCC5=O)cc34)cc2CS1(=O)=O [Compound 129, 1-(4-(1-Methyl-2,2-dioxido-1,3-dihydrobenzo[c]isothiazol-5-yl)isoquinolin-6-yl)pyrrolidin-2-one]
< 10		Cn1cc(-c2ccc(-c3cncc4ccc(NS(=O)(=O)C5CC5)cc34)cc2)cn1 [Compound 162, Cyclopropanesulfonic acid {4-[4-(1-methyl-1H-pyrazol-4-yl)-phenyl]-isoquinolin-6-yl}-amide]
10 to 100		CC(C)(O)Cn1cc(-c2ccc(-c3cncc4ccc(N5C(=O)Cc6ccccc65)cc34)cc2)cn1 [Compound 150, 1-(4-(4-(1-(2-hydroxy-2-methylpropyl)-1H-pyrazol-4-yl)phenyl)isoquinolin-6-yl)indolin-2-one]
10 to 100		COC1CN(C(=O)c2ccc3c(N)ncc(-c4ccc5c(c4)N(C)C(=O)C5)c3c2)C1 [Compound 173, 6-[1-Amino-6-(3-methoxy-azetidine-1-carbonyl)-isoquinolin-4-yl]-1-methyl-1,3-dihydro-indol-2-one]
< 10		Cn1cc(-c2ccc(-c3cncc4ccc(NS(=O)(=O)C5(C)CC5)cc34)cc2)cn1 [Compound 168, 1-Methyl-cyclopropanesulfonic acid {4-[4-(1-methyl-1H-pyrazol-4-yl)-phenyl]-isoquinolin-6-yl}-amide]
10 to 100		Cn1cc(-c2ccc(-c3cnc(N)c4ccc(C(=O)N5CCC(F)(F)C5)cc34)cc2)cn1 [Compound 196, (1-amino-4-(4-(1-methyl-1H-pyrazol-4-yl)phenyl)isoquinolin-6-yl)(3,3-difluoropyrrolidin-1-yl)methanone]
10 to 100		CC(=O)NCc1ccc2cncc(-c3ccc4c(c3)CS(=O)(=O)N4C)c2n1 [Compound 38, N-[8-(1-Methyl-2,2-dioxo-2,3-dihydro-1H-benzo[c]isothiazol-5-yl)-[1,6]naphthyridin-2-ylmethyl]-acetamide]
10 to 100		COC1(C)CN(C(=O)c2ccc3cncc(-c4ccc(-c5cnn(C)c5)cc4)c3c2)C1 [Compound 185]
10 to 100		COC1CN(C(=O)c2ccc3c(N)ncc(-c4ccc(-c5cnn(C(C)C)c5)cc4)c3n2)C1 [Compound 161, (5-amino-8-(4-(1-isopropyl-1H-pyrazol-4-yl)phenyl)-1,6-naphthyridin-2-yl)(3-methoxyazetidin-1-yl)methanone]
10 to 100		Cn1cc(-c2ccc(-c3cncc4ccccc34)cc2)cn1 [Compound 109, 4-(4-(1-methyl-1H-pyrazol-4-yl)phenyl)isoquinoline]
< 10		C[C@@H](NC(=O)c1ccc2cncc(-c3ccc(-c4cnn(C)c4)cc3)c2n1)c1ccccc1 [Compound 24, (R)-8-(4-(1-methyl-1H-pyrazol-4-yl)phenyl)-N-(1-phenylethyl)-1,6-naphthyridine-2-carboxamide]
10 to 100		O=C(c1ccc2cnccc2n1)N1CCC[C@H]1c1ccccc1 [Compound 54, (S)-(1,6-naphthyridin-2-yl)(2-phenylpyrrolidin-1-yl)methanone]
10 to 100		O=C(c1ccc2cnccc2c1)N1CCC[C@H]1c1ccc(Cl)cc1 [Compound 113, (S)-(2-(4-chlorophenyl)pyrrolidin-1-yl)(isoquinolin-6-yl)methanone]
< 10		Cn1cc(-c2ccc(-c3cncc4ccc(NS(=O)(=O)c5ccccc5)cc34)cc2)cn1 [Compound 152, N-{4-[4-(1-Methyl-1H-pyrazol-4-yl)-phenyl]-isoquinolin-6-yl}-benzenesulfonamide]
10 to 100		O=C(c1ccc2cncc(Br)c2n1)N1CCC[C@H]1c1ccc(C(F)(F)F)cc1 [Compound 91, (S)-(8-bromo-1,6-naphthyridin-2-yl)(2-(4-(trifluoromethyl)phenyl)pyrrolidin-1-yl)methanone]
< 10		CNC(=O)c1ccc2cncc(-c3ccc4c(c3)N(C)C(=O)C4)c2n1 [Compound 15, 8-(1-methyl-2-oxo-2,3-dihydro-1H-indol-6-yl)-[1,6]naphthyridine-2-carboxylic acid methylamide]
< 10		CC(C)(O)Cn1cc2cc(-c3cncc4ccc(NS(C)(=O)=O)cc34)ccc2n1 [Compound 151, N-(4-(2-(2-hydroxy-2-methylpropyl)-2H-indazol-5-yl)isoquinolin-6-yl)methanesulfonamide]
< 10		Cn1cc(-c2ccc(-c3cncc4ccc(C(N)=O)cc34)cc2)cn1 [Compound 96, 4-(4-(1-methyl-1H-pyrazol-4-yl)phenyl)isoquinoline-6-carboxamide]
< 10		CC(C)(O)Cn1cc(-c2ccc(-c3cncc4ccc(NS(C)(=O)=O)cc34)cc2)cn1 [Compound 138, N-(4-(4-(1-(2-hydroxy-2-methylpropyl)-1H-pyrazol-4-yl)phenyl)isoquinolin-6-yl)methanesulfonamide]
< 10		CN1c2ccc(-c3cncc4ccc(-c5nccn5C)cc34)cc2CS1(=O)=O [Compound 93, 1-methyl-5-(6-(1-methyl-1H-imidazol-2-yl)isoquinolin-4-yl)-1,3-dihydrobenzo[c]isothiazole 2,2-dioxide]
< 10		Cc1cncc2ccc(C(=O)N3CCC[C@H]3c3ccc(Cl)cc3)nc12 [Compound 83, (S)-(2-(4-chlorophenyl)pyrrolidin-1-yl)(8-methyl-1,6-naphthyridin-2-yl)methanone]
< 10		COC1(C)CN(C(=O)c2ccc3cncc(-c4ccc(-c5cnn(C)c5)cc4)c3n2)C1 [Compound 149, (3-methoxy-3-methylazetidin-1-yl)(8-(4-(1-methyl-1H-pyrazol-4-yl)phenyl)-1,6-naphthyridin-2-yl)methanone]
